Results taken from patent US20240059703A1 (AMGEN INC., priority 2021, published 2024).

How the values were obtained:
KRAS G12C = KRAS G12C (Homo sapiens (Human), UniProt P01116, C118A/G12C); assay: 2 h coupled exchange assay; format: biochemical; conditions: Avg 2 h Coupled exchange IC50, 2 h compound pre-incubation
Protocol: The term “2 h coupled exchange assay” or “20 h coupled exchange assay” as used herein refers to the assay described in the Section entitled “BIOLOGICAL EVALUATION.”

[1] = test system: MIA PaCa-2 (human pancreatic carcinoma) cells; assay: Cell Viability Assay (CellTiter-Glo), MIA PaCa-2; format: cell-based
Protocol: Serially-diluted compound or DMSO was added to the cells, and plates were incubated at 37° C., 5% CO2 for 72 h. Cell viability was measured using a CellTiter-Glo® Luminescent Cell Viability Assay kit (Promega) according to the manufacturer's protocol. The luminescence signal of treated samples was normalized to DMSO control, and data were analyzed using a 4-parameter logistic model to calculate IC50 values.

[2] = test system: A549 (human lung carcinoma) cells; assay: Cell Viability Assay (CellTiter-Glo), A549; format: cell-based
Summary of the method: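 Luminescent ATP read-out (CellTiter-Glo) after 72 h compound treatment of cells seeded overnight at 1.67E+04 cells/mL in RPMI 1640, 10% FBS; signal relative to DMSO, IC50 by 4-parameter logistic model.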

[3] = SOS-mediated nucleotide exchange

KRAS G12C, sequence (P01116 other isoform, or with tags, fused parts or gaps G12C/C118A): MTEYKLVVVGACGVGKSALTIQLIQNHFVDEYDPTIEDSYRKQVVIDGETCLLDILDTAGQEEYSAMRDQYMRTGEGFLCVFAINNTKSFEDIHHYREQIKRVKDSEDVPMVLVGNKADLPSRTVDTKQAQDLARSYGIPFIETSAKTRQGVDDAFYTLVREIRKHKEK

SMILES	IC50 (KRAS G12C) [nM]	IC50 ([1]; Homo sapiens, MIA PaCa-2, 72 h) [nM]	IC50 ([2]; Homo sapiens, A549, 72 h) [nM]	IC50 (KRAS G12C; [3]) [nM]	IC50 ([1]; 72 h) [nM]	IC50 ([2]; 72 h) [nM]
C=CC(=O)N1CC2(CCN(c3nc4c(c(-c5c(C)ccc6cn[nH]c56)c3C#N)COC(C)(C)C4)C2)C1 (single isomer, unassigned) [Example 14-81, (P)-7,7-dimethyl-4-(6-methyl-1H-indazol-7-yl)-2-(2-(2-propenoyl)-2,6-diazaspiro[3.4]octan-6-yl)-7,8-dihydro-5H-pyrano[4,3-b]pyridine-3-carbonitrile]	45	92	> 5000			
C=CC(=O)N1CC2(CCN(c3nc4c(c(-c5cc(O)ccc5C)c3F)C[C@H]3C[C@@H]4C3(C)C)C2)C1 (single isomer, unassigned) [Example 14-59]	25	293	> 5000			
C=CC(=O)N1CC2(CCN(c3nc4c(c(-c5cccc(F)c5F)c3C#N)CCC(c3scnc3C)=C4)C2)C1 [Example 23-46, 4-(2,3-difluorophenyl)-7-(4-methyl-1,3-thiazol-5-yl)-2-(2-(2-propenoyl)-2,6-diazaspiro[3.4]octan-6-yl)-5,6-dihydro-3-quinolinecarbonitrile]	114	1500	5370			
C=CC(=O)N1CC2(CCN(c3nc4c(c(-c5cc(O)cc6ccccc56)c3C#N)[C@H]3CC[C@@H]4C3)C2)C1 (single isomer, unassigned) [Example 2-40]				46	529	2000
C=CC(=O)N1CC2(CCN(c3nc4c(c(-c5c(O)cccc5F)c3C#N)CCC(c3scnc3C)=C4)C2)C1 (single isomer, unassigned) [Example 23-50, (P)-4-(2-fluoro-6-hydroxyphenyl)-7-(4-methyl-1,3-thiazol-5-yl)-2-(2-(2-propenoyl)-2,6-diazaspiro[3.4]octan-6-yl)-5,6-dihydro-3-quinolinecarbonitrile]	38		> 5000		1190	
C=CC(=O)N1CC2(CCN(c3nc4c(c(-c5c(C)ccc6cn[nH]c56)c3C#N)C[C@H]3C[C@@H]4C3(C)C)C2)C1 [Example 14-48, (1R,9R)-10,10-dimethyl-6-(6-methyl-1H-indazol-7-yl)-4-(2-(2-propenoyl)-2,6-diazaspiro[3.4]octan-6-yl)-3-azatricyclo[7.1.1.0^2,7]undeca-2,4,6-triene-5-carbonitrile]	61	53	> 5000			
C=CC(=O)N1CC2(CCN(c3nc4c(c(-c5c(C)cc(F)c6[nH]ncc56)c3C#N)C[C@H]3C[C@@H]4C3(C)C)C2)C1 [Example 12-11, (1R,9R)-6-(7-fluoro-5-methyl-1H-indazol-4-yl)-10,10-dimethyl-4-(2-(2-propenoyl)-2,6-diazaspiro[3.4]octan-6-yl)-3-azatricyclo[7.1.1.0^2,7] undeca-2,4,6-triene-5-carbonitrile]		20	3780	36		
C=CC(=O)N1CC2(CCN(c3nc4c(c(-c5ccccc5Cl)c3C#N)CCC(c3scnc3C)=C4)C2)C1 (single isomer, unassigned) [Example 23-41, (M)-4-(2-chlorophenyl)-7-(4-methyl-1,3-thiazol-5-yl)-2-(2-(2-propenoyl)-2,6-diazaspiro[3.4]octan-6-yl)-5,6-dihydro-3-quinolinecarbonitrile]	325		5770		2390	
C=CC(=O)N1CC2(CCN(c3nc4c(c(-c5ccccc5F)c3C#N)COC(c3scnc3C)C4)C2)C1 [Example 23-8, (7R)-4-(2-fluorophenyl)-7-(4-methyl-1,3-thiazol-5-yl)-2-(2-(2-propenoyl)-2,6-diazaspiro[3.4]octan-6-yl)-7,8-dihydro-5H-pyrano[4,3-b]pyridine-3-carbonitrile(7S)-4-(2-fluorophenyl)-7-(4-methyl-1,3-thiazol-5-yl)-2-(2-(2-propenoyl)-2,6-diazaspiro[3.4]octan-6-yl)-7,8-dihydro-5H-pyrano[4,3-b]pyridine-3-carbonitrile]	169	2240	> 5000			
C=CC(=O)N1CC2(CCN(c3nc4c(c(-c5cc(O)cc6ccccc56)n3)CCC(C)(C)C4)C2)C1 [Example 1-31, 1-(6-(4-(3-hydroxy-1-naphthalenyl)-7,7-dimethyl-5,6,7,8-tetrahydro-2-quinazolinyl)-2,6-diazaspiro[3.4]octan-2-yl)-2-propen-1-one]		> 5000	> 5000	75		
C=CC(=O)N1CC2(CCN(c3nc4c(c(-c5ccccc5C)c3C#N)CCC(c3scnc3C)C4)C2)C1 [Example 23-2, (7R)-4-(2-methylphenyl)-7-(4-methyl-1,3-thiazol-5-yl)-2-(2-(2-propenoyl)-2,6-diazaspiro[3.4]octan-6-yl)-5,6,7,8-tetrahydro-3-quinolinecarbonitrile (7S)-4-(2-methylphenyl)-7-(4-methyl-1,3-thiazol-5-yl)-2-(2-(2-propenoyl)-2,6-diazaspiro[3.4]octan-6-yl)-5,6,7,8-tetrahydro-3-quinolinecarbonitrile]	26	164	12600			
C=CC(=O)N1CC2(CCN(c3nc4c(c(-c5ccccc5F)c3C#N)CC[C@](C)(c3scnc3C)C4)C2)C1 [Example 23-12, (7S)-4-(2-fluorophenyl)-7-methyl-7-(4-methyl-1,3-thiazol-5-yl)-2-(2-(2-propenoyl)-2,6-diazaspiro[3.4]octan-6-yl)-5,6,7,8-tetrahydro-3-quinolinecarbonitrile]	108	754	4070			
C=CC(=O)N1CC2(CCN(c3nc4c(c(-c5cccc6cccc(C)c56)n3)CCCC4)C2)C1 [Example 1-7, 1-(6-(4-(8-methyl-1-naphthalenyl)-5,6,7,8-tetrahydro-2-quinazolinyl)-2,6-diazaspiro[3,4]octan-2-yl)-2-propen-1-one]		> 5000	> 5000	997		
C=CC(=O)N1CC2(CCN(c3nc4c(c(-c5c(C)c(C)cc6cnn(C)c56)c3C)COC(C)(C)C4)C2)C1 [Example 14-40, 1-(6-(3,7,7-trimethyl-4-(1,5,6-trimethyl-1H-indazol-7-yl)-7,8-dihydro-5H-pyrano[4,3-b]pyridin-2-yl)-2,6-diazaspiro[3.4]octan-2-yl)-2-propen-1-one]	110	502	> 5000			
C=CC(=O)N1CC2(CCN(c3nc4c(c(-c5cc(O)ccc5Cl)c3C#N)CCN(c3scnc3C)C4)C2)C1 (single isomer, unassigned) [Example 21-25, (M)-4-(2-chloro-5-hydroxyphenyl)-7-(4-methyl-1,3-thiazol-5-yl)-2-(2-(2-propenoyl)-2,6-diazaspiro[3.4]octan-6-yl)-5,6,7,8-tetrahydro-1,7-naphthyridine-3-carbonitrile]	3260				7400	13400
C=CC(=O)N1CC2(CCN(c3nc4c(c(-c5c(C)ccc6[nH]ncc56)c3C#N)CCC43CC3)C2)C1 [Example 13-101, 2-(2-acryloyl-2,6-diazaspiro[3.4]octan-6-yl)-4-(5-methyl-1H-indazol-4-yl)-5,6-dihydrospiro[cyclopenta[b]pyridine-7,1′-cyclopropane]-3-carbonitrile]		1370	> 5000	102		
C=CC(=O)N1CC2(CCN(c3nc4cc(-c5ccnn5C)ccc4c(-c4c(C)ccc5[nH]ncc45)c3C#N)C2)C1 [Example 15-1, 4-(5-methyl-1H-indazol-4-yl)-7-(1-methyl-1H-pyrazol-5-yl)-2-(2-(2-propenoyl)-2,6-diazaspiro[3.4]octan-6-yl)-3-quinolinecarbonitrile]	31	144	3310			
C=CC(=O)N1CC2(CCN(c3nc(-c4ccccc4F)c4c(n3)N([C@H](CC(=O)NC)CC(C)C)CC4)C2)C1 (single isomer, unassigned) [Example 9]		1690	> 5000	691		
C=CC(=O)N1CC2(CCN(c3nc4c(c(-c5ccccc5C)c3C#N)CC[C@@H](c3scnc3C)C4)C2)C1 (single isomer, unassigned) [Example 23-3]	107		> 5000		2520	
C=CC(=O)N1CC2(CCN(c3nc4c(c(-c5cc(O)ccc5C)c3Cl)COC(C)(C)C4)C2)C1 (single isomer, unassigned) [Example 2-81, (P)-1-(6-(3-chloro-4-(5-hydroxy-2-methylphenyl)-7,7-dimethyl-7,8-dihydro-5H-pyrano[4,3-b]pyridin-2-yl)-2,6-diazaspiro[3,4]octan-2-yl)-2-propen-1-one]		58	> 5000	53		
C=CC(=O)N1CC2(CCN(c3nc4c(c(-c5cc(O)ccc5F)c3C#N)CCN(C(C)C)C4)C2)C1 [Example 21-15, 4-(2-fluoro-5-hydroxyphenyl)-7-(2-propanyl)-2-(2-(2-propenoyl)-2,6-diazaspiro[3.4]octan-6-yl)-5,6,7,8-tetrahydro-1,7-naphthyridine-3-carbonitrile]	220	> 5000	> 5000			
